Data: patent US5723494A, “Derivatives of glutamic and aspartic acids, a method of preparing them, and their use as drugs for enhancing memory and learning” (priority 1993, dated 1998)

System: not listed separately
Test: Antidepressant activity in the behavioural despair test in the mouse
Assay type: in vivo, mouse (male CD1)
Conditions: 5 min, 3 mg/kg IP, 5 minutes, read-out: Decrease in immobility (as %) vs the controls
Description: 5) Antidepressant activity in the "behavioural despair test" Another interesting aspect of the pharmacological activity of these products is the potent antidepressant activity which some of them display in an experimental model in the mouse, in which a state of depression is induced experimentally by the method of Porsolt et al. (Arch. Int. Pharmacodyn. 229, p. 327-336 (1977)). Male CDl mice which weighed about 20-25 g and had not fasted were used. The test consisted of inducing a state of depression in the animal which was subjected to forced swimming in a glass cylinder from which it could not escape. After a short period of vigorous activity the mouse adopted a characteristic posture of immobility which was easily identifiable; this immobility is reduced by antidepressant drugs. 1 l glass beakers, filled to 700 ml with water at a temperature of 25° C. were used for the test. The mice, 8 per group, were treated intraperitoneally with the drug under test, 30 minutes before the test. At time 0, each animal was immersed in a beaker and, after one minute during which all moved about swimming vigorously in order to escape, regardless of treatment, the observer, who was unaware of the treatment, assigned the following points: 0=animal immobile 1=minimum movement to remain afloat 2=vigorous swimming The greater the antidepressant activity of the drug, the more the animals will move about in order to try to escape from the water. The points were assigned every 15 sec for a total period of 5 min with a total of 20 observations. The antidepressant activity was determined with the use of various doses of the compound by the regression method as the ED50, that is, the dose in mg/kg of the compound which could antagonise the animal's immobility time by 50%.

Row | SMILES | inhibition in vivo at 3 mg/kg [%]
1 | N[C@H](CCC(=O)O)C(=O)NCCC12CC3CC(CC(C3)C1)C2 [Compound 17] | 7
2 | N[C@@H](CCC(=O)O)C(=O)NC1CCCCCC1 [Compound 20] | 0
3 | CC1(C)CCC(NC(=O)[C@H](N)CCC(=O)O)CC1 [Compound 24] | 0

Same assay, conditions: 5 min, 10 mg/kg IP, 5 minutes, read-out: Decrease in immobility (as %) vs the controls

Row | SMILES | inhibition in vivo at 10 mg/kg [%]
4 | N[C@H](CCC(=O)O)C(=O)NCCC12CC3CC(CC(C3)C1)C2 [Compound 17] | 12
5 | N[C@@H](CCC(=O)O)C(=O)NC1CCCCCC1 [Compound 20] | 11
6 | CC1(C)CCC(NC(=O)[C@H](N)CCC(=O)O)CC1 [Compound 24] | 16

Same assay, conditions: 5 min, 30 mg/kg IP, 5 minutes, read-out: Decrease in immobility (as %) vs the controls

Row | SMILES | inhibition in vivo at 30 mg/kg [%]
7 | N[C@H](CCC(=O)O)C(=O)NCCC12CC3CC(CC(C3)C1)C2 [Compound 17] | 0
8 | N[C@@H](CCC(=O)O)C(=O)NC1CCCCCC1 [Compound 20] | 52
9 | CC1(C)CCC(NC(=O)[C@H](N)CCC(=O)O)CC1 [Compound 24] | 19

Same assay, conditions: IP

Row | SMILES | Antidepressant activity (in words) | ED50 (dose antagonising immobility time by 50%)
10 | N[C@H](CCC(=O)O)C(=O)NCCC12CC3CC(CC(C3)C1)C2 [Compound 17] | inactive | Inactive
11 | CC1(C)CCC(NC(=O)[C@H](N)CCC(=O)O)CC1 [Compound 24] | inactive | Inactive

Same assay, conditions: IP, read-out: ED50 (dose antagonising immobility time by 50%)

Row | SMILES | ED50 [mg/kg]
12 | N[C@@H](CCC(=O)O)C(=O)NC1CCCCCC1 [Compound 20] | 36.1

System: not listed separately
Test: Memory-enhancement activity in the passive avoidance test in the rat
Assay type: in vivo, rat (male Wistar)
Conditions: 96 h; 0.1 mg/kg IP, rat, retest on the 4th day, 6 treatments; read-out: % variation vs controls (FS) in step through latency
Method: 2) Memory-enhancement activity in the "passive avoidance" test in the rat
A "passive avoidance" model was used, which required a single "step-through" situation and a retest of the "retention memory" 72 h after the training.
Male Wistar rats which weighed about 200 g and had not fasted, were used. The test consisted of evaluating the degree of memory of an animal after it had been trained as follows.
The equipment used was a shuttle box modified thus: one compartment was lined with black card including the cover, and a 60 W lamp was disposed above the other, spaced from the grid floor by about 40 cm. The two compartments were divided by an automatic guillotine-like door. Each animal was placed in the compartment in the light with the guillotine-likedoor open. From this moment, the time taken by the rat to go into the compartment lined with black card (the dark compartment) (the step-throughlatency=STL) was measured. The animals which took more than 30 sec to go into the dark were discarded. Once they had gone into the dark, the door was lowered automatically and a=0.1 mA shock lasting 5 sec (a foot shock=FS) started. After 10 sec, the animal was removed from the shuttle box.
Upon completion, the animals were selected randomly in homogeneous groups and treated with the products.
The retest to determine memory was made after 72 hours. The products were administered chronically in the preselected manner twice per day and the last treatment 30 min before the retest (6 treatments altogether).
The memory-retention test (the retest) consisted of placing each animal, treated 30 min beforehand with a physiological solution or with the product, in the compartment which was not lined with black card for 30 sec.
The results are expressed as the percentage variation of the STL (in seconds) of the groups treated in comparison with the control group by means of this formula: [formula]

Row | SMILES | change in vivo at 0.1 mg/kg [%]
13 | N[C@H](CCC(=O)O)C(=O)NCCC12CC3CC(CC(C3)C1)C2 [Compound 17] | 0
14 | N[C@@H](CCC(=O)O)C(=O)NC1CCCCCC1 [Compound 20] | 7
15 | CC1(C)CCC(NC(=O)[C@H](N)CCC(=O)O)CC1 [Compound 24] | 8

Same assay, conditions: 96 h; 1 mg/kg IP, rat, retest on the 4th day, 6 treatments; read-out: % variation vs controls (FS) in step through latency

Row | SMILES | change in vivo at 1 mg/kg [%]
16 | N[C@H](CCC(=O)O)C(=O)NCCC12CC3CC(CC(C3)C1)C2 [Compound 17] | 0
17 | N[C@@H](CCC(=O)O)C(=O)NC1CCCCCC1 [Compound 20] | 20
18 | CC1(C)CCC(NC(=O)[C@H](N)CCC(=O)O)CC1 [Compound 24] | 0

Same assay, conditions: 96 h; 10 mg/kg IP, rat, retest on the 4th day, 6 treatments; read-out: % variation vs controls (FS) in step through latency

Row | SMILES | change in vivo at 10 mg/kg [%]
19 | N[C@H](CCC(=O)O)C(=O)NCCC12CC3CC(CC(C3)C1)C2 [Compound 17] | 0
20 | N[C@@H](CCC(=O)O)C(=O)NC1CCCCCC1 [Compound 20] | 36
21 | CC1(C)CCC(NC(=O)[C@H](N)CCC(=O)O)CC1 [Compound 24] | 0

Same assay, conditions: IP, rat; read-out: ED30 (dose increasing the latency time (STL) by 30%)

Row | SMILES | ED30 [mg/kg]
22 | N[C@@H](CCC(=O)O)C(=O)NC1CCCCCC1 [Compound 20] | 4.2

Same assay, conditions: rat, IP, retest on the 4th day

Row | SMILES | Activity in increasing the avoidance time (in words)
23 | N[C@H](CCC(=O)O)C(=O)NCCC12CC3CC(CC(C3)C1)C2 [Compound 17] | inactive
24 | N[C@@H](CCC(=O)O)C(=O)NC1CCCCCC1 [Compound 20] | considerable activity in increasing the avoidance time
25 | CC1(C)CCC(NC(=O)[C@H](N)CCC(=O)O)CC1 [Compound 24] | inactive

System: not listed separately
Test: Antiamnesic activity in the mouse (step-down passive avoidance, amnesia induced by ECS)
Assay type: in vivo, mouse (CD1 male)
Conditions: OS, mouse
Description: 1) Antiamnesic activity in the mouse (step-down passive avoidance)
An electroconvulsive shock (ECS) produces retrograde amnesia in the test animal if applied immediately after the training received, for example, a harmful stimulus of a suitable intensity.
The object of the experiment was to study the effects of the compounds of the invention in antagonizing the amnesic effect of an ECS on the short-term memory consolidation process.
CD1 male mice which weighed about 30-35 g, and had not fasted were used. The equipment used was a rectangular plexiglass cage (21×21×40cm) with an electrifiable grid floor and a wooden cube (4×4×4 cm) fixed in the centre of the cage. The animals were treated orally with the product under test 60 minutes before the training.
The mouse was placed delicately on the wooden cube and the time it took to descend to the grid floor (SDL=step-down latency) was measured. When all four of the animal's paws were resting on the floor the continuous 0.2 mA shock started and the time taken by The mouse to remount the wooden cube (EL=escape latency) was measured.
The animals with an SDL of between 3 and 30 sec and with an EL of between 3 and 60 sec were used for retesting.
Immediately afterwards, a transcorneal ECS was applied with the use of the following parameters: amperage 15 mA, frequency 50 Hz, duration of the train of pulses 0.4 sec. duration of each individual pulse 1 msec., interval between pulses 20 msec. As well as the groups treated with ECS, a control group without ECS and a control group with ECS were used.
The retest was carried out after 24 h.
The results are expressed as the percentage variation of the SDL of the treated groups in comparison with the control group by means of this formula: [formula]

Row | SMILES | Antiamnesic activity (in words)
26 | N[C@H](CCC(=O)O)C(=O)NCCC12CC3CC(CC(C3)C1)C2 [Compound 17] | completely inactive
27 | CC1(C)CCC(NC(=O)[C@H](N)CCC(=O)O)CC1 [Compound 24] | completely inactive

Same assay, conditions: po; 0.1 mg/kg OS, mouse, retest 24 h after training; read-out: Reversal of the amnesia (% vs controls), as the increase in the Step Down Latency

Row | SMILES | change in vivo at 0.1 mg/kg [%]
28 | N[C@H](CCC(=O)O)C(=O)NCCC12CC3CC(CC(C3)C1)C2 [Compound 17] | 0
29 | CC1(C)CCC(NC(=O)[C@H](N)CCC(=O)O)CC1 [Compound 24] | 0

Same assay, conditions: po; 1 mg/kg OS, mouse, retest 24 h after training; read-out: Reversal of the amnesia (% vs controls), as the increase in the Step Down Latency

Row | SMILES | change in vivo at 1 mg/kg [%]
30 | N[C@H](CCC(=O)O)C(=O)NCCC12CC3CC(CC(C3)C1)C2 [Compound 17] | 14
31 | CC1(C)CCC(NC(=O)[C@H](N)CCC(=O)O)CC1 [Compound 24] | 0

Same assay, conditions: po; 3 mg/kg OS, mouse, retest 24 h after training; read-out: Reversal of the amnesia (% vs controls), as the increase in the Step Down Latency

Row | SMILES | change in vivo at 3 mg/kg [%]
32 | N[C@@H](CCC(=O)O)C(=O)NC1CCCCCC1 [Compound 20] | 15

Same assay, conditions: po; 10 mg/kg OS, mouse, retest 24 h after training; read-out: Reversal of the amnesia (% vs controls), as the increase in the Step Down Latency

Row | SMILES | change in vivo at 10 mg/kg [%]
33 | N[C@H](CCC(=O)O)C(=O)NCCC12CC3CC(CC(C3)C1)C2 [Compound 17] | 10
34 | N[C@@H](CCC(=O)O)C(=O)NC1CCCCCC1 [Compound 20] | 41
35 | CC1(C)CCC(NC(=O)[C@H](N)CCC(=O)O)CC1 [Compound 24] | 11

Same assay, conditions: po; 30 mg/kg OS, mouse, retest 24 h after training; read-out: Reversal of the amnesia (% vs controls), as the increase in the Step Down Latency

Row | SMILES | change in vivo at 30 mg/kg [%]
36 | N[C@@H](CCC(=O)O)C(=O)NC1CCCCCC1 [Compound 20] | 61

Same assay, conditions: po; OS, mouse, 60 min before training; read-out: ID50 (antiamnesic activity, dose inhibiting the amnesic effect of the ECS by 50%)

Row | SMILES | ED50 [mg/kg]
37 | N[C@@H](CCC(=O)O)C(=O)NC1CCCCCC1 [Compound 20] | 17.3

System: excitor amino-acid receptors of cortical membranes ("forebrain") of rats
Test: Inhibition of the specific binding of [3H]-glutamate to rat forebrain membranes
Conditions: rat cortical membranes
Description: 6) Studies on binding to rat "forebrain" membranes
L-glutamate recognizes all three receptor subtypes indicated above, al though not selectively. It is therefore desirable to evaluate the capacity of each of the compounds of the invention to interact with the excitor amino-acid receptors of the CNS.
"Forebrain", that is, the cerebral cortex and the hippocampus, were selected as the receptor tissue and ^3 H-L-glutamate as the ligand for marking this heterogenous receptor population.
Rat cerebral tissue (forebrain without striated tissue) was therefore homogeneised cold in tris buffer at pH 7.4. After washing and centrifuging, the final pellet was resuspended in 50 volumes of tris HCl binding buffer at 7.1. 0.5 ml of receptor membrane thus obtained were then incubated, together with the radioactive tracer and the compounds under test, for 20 min at 37° C. The reaction was terminated by separating the bound radio-ligand from the free radio-ligand by filteration on glass-fibre filters which, after washing, were counted in a liquid scintillator (a β-counter) thus determining the radioactivity associated with the pellet. The specific binding was determined as the difference between the binding in the absence and in the presence of cold 3.6 mM L-glutamate.

Row | SMILES | Activity in inhibiting the binding of glutamate (in words)
38 | N[C@@H](CCC(=O)O)C(=O)NC1CCCCCC1 [Compound 20] | considerable activity in inhibiting the binding of the glutamate

Same assay, conditions: rat forebrain membranes, 20 min, 37° C., pH 7.1

Row | SMILES | IC50 [µM]
39 | N[C@H](CCC(=O)O)C(=O)NCCC12CC3CC(CC(C3)C1)C2 [Compound 17] | 312
40 | N[C@@H](CCC(=O)O)C(=O)NC1CCCCCC1 [Compound 20] | 14.4
41 | CC1(C)CCC(NC(=O)[C@H](N)CCC(=O)O)CC1 [Compound 24] | > 1000
